In US10167262B2, “Herbicidal substituted 3-arylpyrazoles” (FMC CORPORATION, priority 2014, dated 2019):

Assays:
Format in all cases: in vivo
[1] = test system: waterhemp (common waterhemp, Amaranthus rudis); assay: Test E pre-/postemergence greenhouse test, plant response rating 0-100; details: scale 0 to 100; for Plant response rating, Waterhemp: Postemergence; for Waterhemp plant response rating: Preemergence
Summary of the method: (§1)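 Pre- and postemergence sprays, vehicle non-phytotoxic solvent containing surfactant; postemergence plants 2–18 cm tall at the 1–4-leaf stage. Scored against controls after 14 to 21 days in a greenhouse, 0 being no effect and 100 complete control.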

[2] = test system: wild poinsettia (Euphorbia heterophylla); assay: as above; details: scale 0 to 100; for Plant response rating, Poinsettia, Wild: Postemergence; for Poinsettia, Wild plant response rating: Preemergence
Summary of the method: as §1

[3] = test system: hairy beggarticks (Bidens pilosa); assay: as above; details: scale 0 to 100; for Plant response rating, Beggarticks: Postemergence; for Beggarticks plant response rating: Preemergence
Summary of the method: as §1

[4] = test system: fall panicum (Panicum dichotomiflorum); assay: as above; details: scale 0 to 100; for Plant response rating, Panicum, Fall: Postemergence; for Panicum, Fall plant response rating: Preemergence
Summary of the method: as §1

[5] = test system: dayflower (Virginia (VA) dayflower, Commelina virginica); assay: as above; details: scale 0 to 100; for Plant response rating, Dayflower, VA: Postemergence; for Dayflower, VA plant response rating: Preemergence
Summary of the method: as §1

corn (Zea mays) = assay: as above; details: scale 0 to 100; for Plant response rating, Corn: Postemergence; for Corn plant response rating: Preemergence
Summary of the method: as §1

[6] = test system: field bindweed (Convolvulus arvensis); assay: as above; details: scale 0 to 100; for Plant response rating, Field Bindweed: Postemergence; for Field Bindweed plant response rating: Preemergence
Summary of the method: as §1

[7] = test system: arrowleaf sida (Sida rhombifolia); assay: as above; details: for Plant response rating, Arrowleaf Sida: Postemergence; for Arrowleaf Sida plant response rating: Preemergence
Summary of the method: as §1

[8] = test system: Italian ryegrass (Lolium multiflorum); assay: as above; details: scale 0 to 100; for Plant response rating, Ryegrass, Italian: Postemergence; for Ryegrass, Italian plant response rating: Preemergence
Summary of the method: as §1

[9] = test system: Brazilian crabgrass (Digitaria horizontalis); assay: as above; details: Postemergence, scale 0 to 100
Summary of the method: as §1

[10] = test system: palmer pigweed (Amaranthus palmeri); assay: as above; details: scale 0 to 100; for Plant response rating, Pigweed, Palmer: Postemergence; for Pigweed, Palmer plant response rating: Preemergence
Summary of the method: as §1

[11] = test system: waterhemp_RES2, (ALS & HPPD resistant common waterhemp, Amaranthus rudis); assay: Test E postemergence greenhouse test, plant response rating 0-100; details: scale 0 to 100
Summary of the method: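 Visual ratings, 0 (no effect) to 100 (complete control), made versus controls 14–21 days after postemergence application in the greenhouse. Plants were at 1- to 4-leaf stage (2–18 cm) in peat moss/vermiculite potting medium.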

O=C(c1ccccc1)c1cn(S(=O)(=O)CCl)nc1-c1cc(Cl)cc(Cl)c1 [Compound 1]
35: Beggarticks plant response rating ([3]; 250 g ai/ha) | Beggarticks plant response rating ([3]; 500 g ai/ha) | Plant response rating, Waterhemp_RES2 ([11]; 125 g ai/ha)
30: Plant response rating, Beggarticks ([3]; 31 g ai/ha)
0: Waterhemp plant response rating ([1]; 31 g ai/ha) | Plant response rating, Poinsettia, Wild ([2]; 31 g ai/ha) | Plant response rating, Poinsettia, Wild ([2]; 62 g ai/ha) | Plant response rating, Poinsettia, Wild ([2]; 125 g ai/ha) | Plant response rating, Poinsettia, Wild ([2]; 250 g ai/ha) | Plant response rating, Poinsettia, Wild ([2]; 500 g ai/ha) | Poinsettia, Wild plant response rating ([2]; 31 g ai/ha) | Poinsettia, Wild plant response rating ([2]; 62 g ai/ha) | Poinsettia, Wild plant response rating ([2]; 125 g ai/ha) | Poinsettia, Wild plant response rating ([2]; 500 g ai/ha) | Beggarticks plant response rating ([3]; 31 g ai/ha) | Beggarticks plant response rating ([3]; 62 g ai/ha) | Beggarticks plant response rating ([3]; 125 g ai/ha) | Plant response rating, Panicum, Fall ([4]; 31 g ai/ha) | Plant response rating, Panicum, Fall ([4]; 62 g ai/ha) | Plant response rating, Panicum, Fall ([4]; 125 g ai/ha) | Plant response rating, Panicum, Fall ([4]; 250 g ai/ha) | Plant response rating, Panicum, Fall ([4]; 500 g ai/ha) | Panicum, Fall plant response rating ([4]; 31 g ai/ha) | Panicum, Fall plant response rating ([4]; 62 g ai/ha) | Panicum, Fall plant response rating ([4]; 125 g ai/ha) | Panicum, Fall plant response rating ([4]; 250 g ai/ha) | Panicum, Fall plant response rating ([4]; 500 g ai/ha) | Plant response rating, Dayflower, VA ([5]; 31 g ai/ha) | Plant response rating, Dayflower, VA ([5]; 62 g ai/ha) | Plant response rating, Dayflower, VA ([5]; 125 g ai/ha) | Plant response rating, Dayflower, VA ([5]; 250 g ai/ha) | Plant response rating, Dayflower, VA ([5]; 500 g ai/ha) | Dayflower, VA plant response rating ([5]; 31 g ai/ha) | Dayflower, VA plant response rating ([5]; 125 g ai/ha) | Dayflower, VA plant response rating ([5]; 250 g ai/ha) | Dayflower, VA plant response rating ([5]; 500 g ai/ha) | Plant response rating, Corn (corn (Zea mays); 31 g ai/ha) | Plant response rating, Corn (corn (Zea mays); 62 g ai/ha) | Plant response rating, Corn (corn (Zea mays); 125 g ai/ha) | Plant response rating, Corn (corn (Zea mays); 250 g ai/ha) | Plant response rating, Corn (corn (Zea mays); 500 g ai/ha) | Corn plant response rating (corn (Zea mays); 31 g ai/ha) | Corn plant response rating (corn (Zea mays); 62 g ai/ha) | Corn plant response rating (corn (Zea mays); 125 g ai/ha) | Corn plant response rating (corn (Zea mays); 250 g ai/ha) | Corn plant response rating (corn (Zea mays); 500 g ai/ha) | Plant response rating, Field Bindweed ([6]; 31 g ai/ha) | Plant response rating, Field Bindweed ([6]; 62 g ai/ha) | Plant response rating, Field Bindweed ([6]; 125 g ai/ha) | Plant response rating, Field Bindweed ([6]; 250 g ai/ha) | Plant response rating, Field Bindweed ([6]; 500 g ai/ha) | Field Bindweed plant response rating ([6]; 31 g ai/ha) | Field Bindweed plant response rating ([6]; 62 g ai/ha) | Field Bindweed plant response rating ([6]; 125 g ai/ha) | Field Bindweed plant response rating ([6]; 250 g ai/ha) | Field Bindweed plant response rating ([6]; 500 g ai/ha) | Plant response rating, Ryegrass, Italian ([8]; 31 g ai/ha) | Plant response rating, Ryegrass, Italian ([8]; 62 g ai/ha) | Plant response rating, Ryegrass, Italian ([8]; 125 g ai/ha) | Plant response rating, Ryegrass, Italian ([8]; 250 g ai/ha) | Plant response rating, Ryegrass, Italian ([8]; 500 g ai/ha) | Ryegrass, Italian plant response rating ([8]; 31 g ai/ha) | Ryegrass, Italian plant response rating ([8]; 62 g ai/ha) | Ryegrass, Italian plant response rating ([8]; 125 g ai/ha) | Ryegrass, Italian plant response rating ([8]; 250 g ai/ha) | Ryegrass, Italian plant response rating ([8]; 500 g ai/ha) | Plant response rating, Crabgrass, Brazil ([9]; 31 g ai/ha) | Plant response rating, Crabgrass, Brazil ([9]; 62 g ai/ha) | Plant response rating, Crabgrass, Brazil ([9]; 125 g ai/ha) | Plant response rating, Crabgrass, Brazil ([9]; 250 g ai/ha) | Plant response rating, Crabgrass, Brazil ([9]; 500 g ai/ha) | Pigweed, Palmer plant response rating ([10]; 31 g ai/ha)
40: Plant response rating, Waterhemp_RES2 ([11]; 31 g ai/ha)
80: Plant response rating, Arrowleaf Sida ([7]; 31 g ai/ha, scale 0 to 100)
75: Arrowleaf Sida plant response rating ([7]; 500 g ai/ha, scale 0 to 100) | Plant response rating, Pigweed, Palmer ([10]; 125 g ai/ha)
65: Plant response rating, Waterhemp ([1]; 31 g ai/ha)
90: Plant response rating, Waterhemp ([1]; 62 g ai/ha) | Plant response rating, Arrowleaf Sida ([7]; 62 g ai/ha, scale 0 to 100)
98: Plant response rating, Waterhemp ([1]; 125 g ai/ha) | Plant response rating, Waterhemp ([1]; 250 g ai/ha) | Plant response rating, Beggarticks ([3]; 125 g ai/ha) | Plant response rating, Beggarticks ([3]; 250 g ai/ha) | Plant response rating, Beggarticks ([3]; 500 g ai/ha) | Plant response rating, Arrowleaf Sida ([7]; 500 g ai/ha, scale 0 to 100 (0 no effect, 100 complete control)) | Plant response rating, Pigweed, Palmer ([10]; 500 g ai/ha) | Plant response rating, Waterhemp_RES2 ([11]; 250 g ai/ha) | Plant response rating, Waterhemp_RES2 ([11]; 500 g ai/ha)
95: Plant response rating, Beggarticks ([3]; 62 g ai/ha) | Plant response rating, Arrowleaf Sida ([7]; 125 g ai/ha, scale 0 to 100) | Plant response rating, Arrowleaf Sida ([7]; 250 g ai/ha, scale 0 to 100)
60: Waterhemp plant response rating ([1]; 125 g ai/ha) | Waterhemp plant response rating ([1]; 250 g ai/ha)
25: Arrowleaf Sida plant response rating ([7]; 62 g ai/ha, scale 0 to 100) | Arrowleaf Sida plant response rating ([7]; 125 g ai/ha, scale 0 to 100) | Plant response rating, Pigweed, Palmer ([10]; 62 g ai/ha) | Pigweed, Palmer plant response rating ([10]; 125 g ai/ha)
70: Plant response rating, Pigweed, Palmer ([10]; 250 g ai/ha)
50: Plant response rating, Pigweed, Palmer ([10]; 31 g ai/ha)
100: Plant response rating, Waterhemp ([1]; 500 g ai/ha) | Waterhemp plant response rating ([1]; 500 g ai/ha) | Pigweed, Palmer plant response rating ([10]; 500 g ai/ha)
20: Waterhemp plant response rating ([1]; 62 g ai/ha) | Arrowleaf Sida plant response rating ([7]; 31 g ai/ha, scale 0 to 100) | Arrowleaf Sida plant response rating ([7]; 250 g ai/ha, scale 0 to 100) | Pigweed, Palmer plant response rating ([10]; 62 g ai/ha) | Pigweed, Palmer plant response rating ([10]; 250 g ai/ha)
